According to US20030129629A1, “Methods and compositions for the identification, assessment, prevention, and therapy of human cancers” (Millennium Pharmaceuticals, Inc., priority 2000, published 2003):
Where two headings read alike, the source gives them in different places.

Experiments:
[1] = test system: 60 cancer cell lines (NCI 60 cancer cell line series); conditions: cited from earlier work
[2] = test system: 60 cancer cell lines (NCI 60 cancer cell line series); experiment: NCI-DTP in vitro cancer screen, sulforhodamine B (SRB) growth inhibition, 48 hour exposure; assay type: cell-based, human
Method in brief: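 NCI-DTP panel of 60 cancer cell lines plated day 0 at line-specific densities, exposed from day 1 to compound at 5 ten-fold-spaced doses in duplicate wells. After 48 h, cell mass stained with sulforhodamine B; −log GI50 derived from dose–response curves, averaged, and classed Low, Medium or High sensitivity.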

N.N.[Cl][Pt][Cl] [cisplatin, cis-Diamminedichloroplatinum (II), reference compound]
5.5: −Log (GI50) ([1]; Breast MCF7(I) CL5001)
3: classification of cell line as Low(1), Medium(2), High(3) sensitivity to compound ([2]; CNS SF-268 CL12014) | classification of cell line as Low(1), Medium(2), High(3) sensitivity to compound ([2]; Leukemia HL-60(I) CL7008) | classification of cell line as Low(1), Medium(2), High(3) sensitivity to compound ([2]; Melanoma LOX IMVI CL10001) | sensitivity classification Low(1)/Medium(2)/High(3) ([2]; NSCLC NCI-H23(I) CL1001) | sensitivity classification Low(1)/Medium(2)/High(3) ([2]; NSCLC NCI-H460 CL1021)
5.2: −Log (GI50) ([1]; Ovarian SK-OV-3 CL6011)
1: classification of cell line as Low(1), Medium(2), High(3) sensitivity to compound ([2]; Breast MDA-MB-231 CL5005) | classification of cell line as Low(1), Medium(2), High(3) sensitivity to compound ([2]; Breast T-47D CL5014) | classification of cell line as Low(1), Medium(2), High(3) sensitivity to compound ([2]; Colon COLO-250 CL4010) | classification of cell line as Low(1), Medium(2), High(3) sensitivity to compound ([2]; Colon HCT-15 CL4015) | classification of cell line as Low(1), Medium(2), High(3) sensitivity to compound ([2]; Colon HT29(I) CL4001) | sensitivity classification Low(1)/Medium(2)/High(3) ([2]; Renal A498 CL9013)
2: classification of cell line as Low(1), Medium(2), High(3) sensitivity to compound ([2]; Breast BT-549 CL5013) | classification of cell line as Low(1), Medium(2), High(3) sensitivity to compound ([2]; Breast HS-578T CL5006) | classification of cell line as Low(1), Medium(2), High(3) sensitivity to compound ([2]; Breast MCF7/ADRr CL5002) | classification of cell line as Low(1), Medium(2), High(3) sensitivity to compound ([2]; Breast MDA-N CL5012) | classification of cell line as Low(1), Medium(2), High(3) sensitivity to compound ([2]; CNS SF-539 CL12016) | classification of cell line as Low(1), Medium(2), High(3) sensitivity to compound ([2]; CNS SNB-75(I) CL12005) | classification of cell line as Low(1), Medium(2), High(3) sensitivity to compound ([2]; CNS U251(I) CL12009) | classification of cell line as Low(1), Medium(2), High(3) sensitivity to compound ([2]; Colon HCC-2998 CL4002) | classification of cell line as Low(1), Medium(2), High(3) sensitivity to compound ([2]; Colon SW-620 CL4009) | classification of cell line as Low(1), Medium(2), High(3) sensitivity to compound ([2]; Leukemia K562(I) CL7005) | classification of cell line as Low(1), Medium(2), High(3) sensitivity to compound ([2]; Leukemia RPMI-8226(I) CL7010) | classification of cell line as Low(1), Medium(2), High(3) sensitivity to compound ([2]; Melanoma M14 CL10014) | classification of cell line as Low(1), Medium(2), High(3) sensitivity to compound ([2]; Melanoma SK-MEL-28 CL10008) | sensitivity classification Low(1)/Medium(2)/High(3) ([2]; NSCLC NCI-H522 CL1003) | sensitivity classification Low(1)/Medium(2)/High(3) ([2]; Ovarian IGROV1 CL6010) | sensitivity classification Low(1)/Medium(2)/High(3) ([2]; Ovarian OVCAR-4 CL6002) | sensitivity classification Low(1)/Medium(2)/High(3) ([2]; Ovarian OVCAR-5 CL6003) | sensitivity classification Low(1)/Medium(2)/High(3) ([2]; Ovarian OVCAR-8 CL6005) | sensitivity classification Low(1)/Medium(2)/High(3) ([2]; Prostate DU-145 CL11003) | sensitivity classification Low(1)/Medium(2)/High(3) ([2]; Renal RXF-393 CL9016) | sensitivity classification Low(1)/Medium(2)/High(3) ([2]; Renal UO-31 CL9004)
